Data as given in article PMC9469097 (Frontiers in Pharmacology, 2022).
Read-outs that look alike come from different tables or passages of the source.

Assays:
[1] = Tissue distribution of PTAs of Styrax in rats; conditions: for exposure in rat plasma and rat liver: after single oral dose of Styrax (100 mg/kg)
Procedure: Nine Male Sprague-Dawley rats (250–300 g) were purchased from Shanghai Sippe-Bk Lab Animal Co., Ltd. (Shanghai, China) and were fed in Experimental Animal Center of SHUTCM. […] The rats were fasted overnight before dosing but were free to drink water. Nine rats were randomly divided into three groups (1, 2, and 4 h). […] Blood samples were collected from the abdominal aorta, and the tissues (including the liver, duodenum, jejunum, ileum and colon) were removed rapidly and placed on ice. After then, the blood samples were centrifuged at 8,000 rpm, 4 °C for 10 min, and the supernatant was stored at −80 °C until analysis.
Firstly, each tissue (such as liver, duodenum, jejunum, ileum, colon) was accurately weighed after sucking the water on tissue surface. Each tissue was put into an EP tube and then cut (3-5 times) by a scissor. After then, PBS (pH 7.4) and magnetic beads were added into EP tube, grind the tissue by a tissue grinder. The tissue grinding fluid was centrifuged at 9,000 g, 4 °C for 20 min. 50 μl tissue supernatant was diluted by adding 250 μl LC grade acetonitrile. The protein was precipitated by centrifuging at 20,000 ×g, 4 °C for 30 min and the supernatant was collected to determine the protein concentration by a BCA Protein Quantification Kit. After then, the concentrations of seven PTAs were determined by using UHPLC-Q-Orbitrap HRMS analysis.

[2] = Stability tests for target pentacyclic triterpenoid acids
CYP3A = CYP3A (Homo sapiens, UniProt P08684); assay: CYP3A-catalyzed midazolam 1′-hydroxylation in HLMs; type: biochemical; conditions: for IC50 at 30 min: human
Procedure: Following incubation for 30 min at 37 °C, and 200 μl ice-cold acetonitrile containing internal standard (IS, 90 ng/ml) was subsequently added to quench the oxidative reaction. The mixture was then centrifuged at 20,000 ×g, 4 °C for 20 min, and the supernatant was quantified by LC-MS/MS analysis as described in Supplementary Table S2.

CYP3A4 = CYP3A4 (Homo sapiens, UniProt P08684); assay: CYP3A4-catalyzed NEN 4-hydroxylation in HLMs (fluorescence-based assay)
Procedure: In brief, PBS (pH 7.4, 100 mM), herbal medicines (100 μg/ml, final concentration)/PTAs/solvent, NEN, G-6-P, G-6-PDH, MgCl2, and HLMs were added to the 96-well plate in turn, then the samples were vortexed and pre-incubated for 3 min at 37 °C. The oxidative reactions were initiated by adding β-NADP^+ to yield a final volume of 200 μl, then the formation rates of NEHN (hydroxylated metabolite of NEN) were continuously monitored for 30 min at 37 °C using a 96-well fluorescence microplate reader (SpectraMax® iD3, Molecular Devices, Austria). The percentage of organic solvent in all incubation is not over 1%.

[3] = Pharmacokinetic interaction between Styrax and midazolam (i.v. and i.g.) in rats; conditions: for AUC(0-inf) / Cmax / half-life: male, Sprague-Dawley, rat, plasma; for half-life: t1/2, rats
[4] = iv, 5 mg/kg, rats, midazolam i.v. 5 mg/kg, pretreated with Soybean oil
[5] = iv, 5 mg/kg, rats, midazolam i.v. 5 mg/kg, pretreated with Styrax i.g. 100 mg/kg
[6] = po, 20 mg/kg, rats, midazolam i.g. 20 mg/kg, pretreated with Soybean oil
[7] = po, 20 mg/kg, rats, midazolam i.g. 20 mg/kg, pretreated with Styrax i.g. 100 mg/kg
[8] = rats, midazolam i.g. 20 mg/kg, Styrax + midazolam vs Soybean oil + midazolam (fold)
[9] = rats, midazolam i.v. 5 mg/kg, Styrax + midazolam vs Soybean oil + midazolam

Chain of CYP3A (P08684 2-503): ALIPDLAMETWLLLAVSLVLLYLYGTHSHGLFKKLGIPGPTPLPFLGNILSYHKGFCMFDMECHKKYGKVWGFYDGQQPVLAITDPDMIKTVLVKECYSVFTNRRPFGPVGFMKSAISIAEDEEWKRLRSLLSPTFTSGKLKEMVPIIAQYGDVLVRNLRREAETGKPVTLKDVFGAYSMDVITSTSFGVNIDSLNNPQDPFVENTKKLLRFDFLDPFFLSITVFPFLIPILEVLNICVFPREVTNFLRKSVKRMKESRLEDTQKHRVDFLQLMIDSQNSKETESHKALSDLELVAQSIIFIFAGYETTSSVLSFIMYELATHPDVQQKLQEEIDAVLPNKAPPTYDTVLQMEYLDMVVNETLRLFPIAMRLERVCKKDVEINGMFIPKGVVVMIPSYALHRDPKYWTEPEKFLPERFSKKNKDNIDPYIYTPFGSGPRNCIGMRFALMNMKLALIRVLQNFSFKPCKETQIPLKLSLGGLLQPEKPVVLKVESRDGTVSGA
Chain of CYP3A4 (P08684 whole entry): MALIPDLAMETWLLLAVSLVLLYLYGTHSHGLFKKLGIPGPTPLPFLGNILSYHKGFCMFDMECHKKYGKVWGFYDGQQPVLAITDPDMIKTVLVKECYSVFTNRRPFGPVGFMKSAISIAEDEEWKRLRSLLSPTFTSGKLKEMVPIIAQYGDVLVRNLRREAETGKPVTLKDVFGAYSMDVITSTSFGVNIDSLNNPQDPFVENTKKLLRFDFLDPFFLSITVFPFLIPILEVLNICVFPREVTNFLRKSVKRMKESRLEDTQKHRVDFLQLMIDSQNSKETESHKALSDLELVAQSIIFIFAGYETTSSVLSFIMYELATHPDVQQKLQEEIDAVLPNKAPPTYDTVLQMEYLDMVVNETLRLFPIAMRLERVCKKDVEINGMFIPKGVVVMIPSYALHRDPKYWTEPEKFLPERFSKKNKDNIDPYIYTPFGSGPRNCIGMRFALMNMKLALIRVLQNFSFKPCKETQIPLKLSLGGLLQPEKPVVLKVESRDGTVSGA

SMILES	exposure in rat plasma and rat liver [1]	Stability, 4 ℃ Refrigerator (3 day, %) ([2]; nominal level 3.28 nmol/L) [%]	Stability, -20℃ freeze-thaw (3 times, %) ([2]; nominal level 3.28 nmol/L) [%]	Stability, Room temperature (24 h, %) ([2]; nominal level 3.28 nmol/L) [%]	Stability, 4 ℃ Refrigerator (3 day, %) ([2]; nominal level 20.48 nmol/L) [%]	Stability, -20℃ freeze-thaw (3 times, %) ([2]; nominal level 20.48 nmol/L) [%]	Stability, Room temperature (24 h, %) ([2]; nominal level 20.48 nmol/L) [%]	Stability, 4 ℃ Refrigerator (3 day, %) ([2]; nominal level 128.00 nmol/L) [%]	Stability, -20℃ freeze-thaw (3 times, %) ([2]; nominal level 128.00 nmol/L) [%]	Stability, Room temperature (24 h, %) ([2]; nominal level 128.00 nmol/L) [%]	IC50 at 30 min (CYP3A; microsomes, pH 7.4) [µM]	IC50 (CYP3A4) [µM]	also measured
C=C(C)[C@@H]1CC[C@]2(C(=O)O)CC[C@]3(C)[C@H](CC[C@@H]4[C@@]5(C)CC[C@H](O)C(C)(C)[C@@H]5CC[C@]43C)[C@@H]12 [betulinic acid]	could not be detected	100.20	104.81	98.14	102.78	99.04	102.89	102.12	110.33	103.89	7.74 ± 0.95	4.11 ± 0.8	–
C=C(C)[C@@H]1CC[C@]2(C(=O)O)CC[C@]3(C)[C@H](CC[C@@H]4[C@@]5(C)CCC(=O)C(C)(C)[C@@H]5CC[C@]43C)[C@@H]12 [betulonic acid]	–	–	–	–	–	–	–	–	–	–	–	–	IC50 (CYP3A; midazolam 1′-hydroxylation, HLMs): 2.51 ± 0.34 µM; IC50 (CYP3A4; NEN 4-hydroxylation, HLMs): 0.96 ± 0.14 µM
C[C@H]1[C@H](C)CC[C@]2(C(=O)O)CC[C@]3(C)C(=CC[C@@H]4[C@@]5(C)C[C@@H](O)[C@H](O)C(C)(C)[C@@H]5CC[C@]43C)[C@H]12 [corosolic acid]	–	–	–	–	–	–	–	–	–	–	–	41.9 ± 11.7	Stability, 4 ℃ Refrigerator (3 day, %) ([2]; nominal level 8.19 nmol/L): 105.13%; Stability, -20℃ freeze-thaw (3 times, %) ([2]; nominal level 8.19 nmol/L): 104.46%; Stability, Room temperature (24 h, %) ([2]; nominal level 8.19 nmol/L): 99.78%; Stability, 4 ℃ Refrigerator (3 day, %) ([2]; nominal level 51.20 nmol/L): 104.14%; Stability, -20℃ freeze-thaw (3 times, %) ([2]; nominal level 51.20 nmol/L): 100.45%; Stability, Room temperature (24 h, %) ([2]; nominal level 51.20 nmol/L): 99.91%; Stability, 4 ℃ Refrigerator (3 day, %) ([2]; nominal level 320.00 nmol/L): 97.82%; Stability, -20℃ freeze-thaw (3 times, %) ([2]; nominal level 320.00 nmol/L): 98.31%; Stability, Room temperature (24 h, %) ([2]; nominal level 320.00 nmol/L): 96.69%; IC50 at 30 min (CYP3A; human liver microsomes, pH 7.4, probe midazolam (1′-hydroxylation), midazolam 1′-hydroxylation, HLMs, read-out: IC50): 32.2 ± 5.63 µM
C=C(C)[C@@H]1CC[C@]2(C(=O)O)CC[C@]3(C)[C@H](CC[C@@H]4[C@@]5(C)CC[C@@H](O)C(C)(C)[C@@H]5CC[C@]43C)[C@@H]12 [epibetulinic acid]	very low exposure levels	113.34	109.83	104.88	105.44	106.94	96.59	107.19	110.52	106.30	0.64 ± 0.1	0.47 ± 0.08	–
CC1(C)CC[C@]2(C(=O)O)CC[C@]3(C)C(=CC[C@@H]4[C@@]5(C)C[C@@H](O)[C@H](O)C(C)(C)[C@@H]5CC[C@]43C)[C@@H]2C1 [maslinic acid]	could not be detected	–	–	–	–	–	–	–	–	–	19.4 ± 3.04	3.44 ± 0.77	Stability, 4 ℃ Refrigerator (3 day, %) ([2]; nominal level 8.19 nmol/L): 101.20%; Stability, -20℃ freeze-thaw (3 times, %) ([2]; nominal level 8.19 nmol/L): 100.54%; Stability, Room temperature (24 h, %) ([2]; nominal level 8.19 nmol/L): 95.84%; Stability, 4 ℃ Refrigerator (3 day, %) ([2]; nominal level 51.20 nmol/L): 103.76%; Stability, -20℃ freeze-thaw (3 times, %) ([2]; nominal level 51.20 nmol/L): 100.05%; Stability, Room temperature (24 h, %) ([2]; nominal level 51.20 nmol/L): 99.51%; Stability, 4 ℃ Refrigerator (3 day, %) ([2]; nominal level 320.00 nmol/L): 97.98%; Stability, -20℃ freeze-thaw (3 times, %) ([2]; nominal level 320.00 nmol/L): 98.47%; Stability, Room temperature (24 h, %) ([2]; nominal level 320.00 nmol/L): 96.85%
Cc1ncc2n1-c1ccc(Cl)cc1C(c1ccccc1F)=NC2 [midazolam]	–	–	–	–	–	–	–	–	–	–	–	–	AUC(0-inf) [3, 4]: 1320 ± 130 ng·h/mL; AUC(0-inf) [3, 5]: 1200 ± 114 ng·h/mL; Cmax [3, 4]: 3260 ± 708 ng/mL; Cmax [3, 5]: 3370 ± 570 ng/mL; half-life ([3]; iv, 5 mg/kg, midazolam i.v. 5 mg/kg, pretreated with Styrax i.g. 100 mg/kg): 0.52 ± 0.14 h; AUC(0-inf) [3, 6]: 211 ± 87.2 ng·h/mL; AUC(0-inf) [3, 7]: 431 ± 217 ng·h/mL; Cmax [3, 6]: 129 ± 111 ng/mL; Cmax [3, 7]: 294 ± 277 ng/mL; half-life ([3]; po, 20 mg/kg, midazolam i.g. 20 mg/kg, pretreated with Soybean oil): 2.14 ± 0.28 h; half-life ([3]; po, 20 mg/kg, midazolam i.g. 20 mg/kg, pretreated with Styrax i.g. 100 mg/kg): 4.52 ± 3.96 h; Tmax Ratio ([3]; rats, midazolam i.g. 20 mg/kg, Styrax + midazolam vs Soybean oil + midazolam): 1.00; AUC(0-inf) Ratio [3, 8]: 2.04; Cmax Ratio [3, 8]: 2.28; t1/2 Ratio [3, 8]: 2.11; AUC(0-inf) Ratio [3, 9]: 0.91; Cmax Ratio [3, 9]: 1.03; Tmax Ratio [3, 9]: 1.00; t1/2 Ratio [3, 9]: 0.59; t1/2 ([3]; rats, midazolam i.v. 5 mg/kg, pretreated with Soybean oil): 0.88 ± 0.28 h
CC1(C)CC[C@]2(C(=O)O)CC[C@]3(C)C(=CC[C@@H]4[C@@]5(C)CC[C@H](O)C(C)(C)[C@@H]5CC[C@]43C)[C@@H]2C1 [oleanolic acid]	very low exposure levels	105.69	103.79	103.28	102.19	105.51	99.64	104.96	105.16	99.00	14.8 ± 2.34	–	–
CC1(C)CC[C@]2(C(=O)O)CC[C@]3(C)C(=CC[C@@H]4[C@@]5(C)CCC(=O)C(C)(C)[C@@H]5CC[C@]43C)[C@@H]2C1 [oleanonic acid]	very low exposure levels	85.84	91.69	86.92	103.95	109.44	101.86	100.64	113.69	98.85	0.99 ± 0.09	0.8 ± 0.06	local exposure to rat jejunum ([1]; 1 h after single oral dose of Styrax (100 mg/kg)): 745.69 nM/mg tissue protein
